# Data from PMC7916272, “Colorimetric LPMO assay with direct implication for cellulolytic activity” (Biotechnology for Biofuels, 2021).
# Columns and labels:
# Assay in all cases: absorbance of PHP at […] nm
# Assay type in all cases: biochemical
# CotA = target: T1, CotA (Bacillus subtilis, UniProt H8WGE7); conditions: […] enzyme, with or without DHA, […] °C, […] min
# T1 construct: recombinant from Escherichia coli, purified to homogeneity
# T1 sequence (H8WGE7 1-513): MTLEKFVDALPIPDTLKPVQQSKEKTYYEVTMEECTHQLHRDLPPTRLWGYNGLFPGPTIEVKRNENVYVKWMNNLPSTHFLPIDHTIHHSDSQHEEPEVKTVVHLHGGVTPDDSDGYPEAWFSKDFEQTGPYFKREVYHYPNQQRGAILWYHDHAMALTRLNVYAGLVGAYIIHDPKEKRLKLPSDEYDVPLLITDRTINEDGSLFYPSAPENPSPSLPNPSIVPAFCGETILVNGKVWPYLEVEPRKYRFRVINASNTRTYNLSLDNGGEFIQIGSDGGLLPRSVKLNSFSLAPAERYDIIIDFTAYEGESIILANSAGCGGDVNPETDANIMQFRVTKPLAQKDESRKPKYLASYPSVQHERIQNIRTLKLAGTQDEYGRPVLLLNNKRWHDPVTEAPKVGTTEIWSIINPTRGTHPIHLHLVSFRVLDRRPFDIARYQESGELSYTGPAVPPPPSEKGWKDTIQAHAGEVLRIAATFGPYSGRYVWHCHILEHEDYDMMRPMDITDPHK
# AnAA13 = target: T2, AnAA13 (Aspergillus nidulans, UniProt Q5B1W7); conditions: 1 µM Cu-loaded enzyme, with or without DHA, 40 °C, 30 min
# T2 construct: gene aasA; gift from Novozymes, purified to homogeneity, loaded with CuCl2
# T2 sequence (Q5B1W7 19-385): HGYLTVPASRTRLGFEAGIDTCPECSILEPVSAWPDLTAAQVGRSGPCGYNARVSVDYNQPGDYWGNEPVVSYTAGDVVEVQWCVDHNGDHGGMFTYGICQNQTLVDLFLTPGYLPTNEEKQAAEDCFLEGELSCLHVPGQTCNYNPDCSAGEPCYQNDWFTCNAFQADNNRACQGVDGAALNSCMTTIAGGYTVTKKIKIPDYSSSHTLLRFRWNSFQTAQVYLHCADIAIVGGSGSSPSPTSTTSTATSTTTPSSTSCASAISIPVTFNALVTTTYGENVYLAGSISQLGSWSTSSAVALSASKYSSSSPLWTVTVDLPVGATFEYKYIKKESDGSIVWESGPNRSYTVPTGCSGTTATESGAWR
# SmAA10 = target: T3, SmAA10 (Serratia marcescens, UniProt P9WEM3); conditions: 1 µM Cu-loaded enzyme, with or without DHA, 40 °C, 30 min
# T3 construct: gene CBP21; expressed using LyGo platform, purified to homogeneity, loaded with CuCl2
# T3 sequence (P9WEM3 28-197): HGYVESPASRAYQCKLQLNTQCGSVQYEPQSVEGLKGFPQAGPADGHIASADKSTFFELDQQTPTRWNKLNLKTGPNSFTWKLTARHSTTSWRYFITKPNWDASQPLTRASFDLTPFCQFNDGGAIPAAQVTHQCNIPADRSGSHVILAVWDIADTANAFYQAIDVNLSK
# TtAA9 = target: T4, TtAA9 (Thermothielavioides terrestris, UniProt D0VWZ9); conditions: 1 µM Cu-loaded enzyme, with or without DHA, 40 °C, 30 min
# T4 construct: gene gh61e; gift from Novozymes, purified to homogeneity, loaded with CuCl2
# T4 sequence (D0VWZ9 entry or part of it): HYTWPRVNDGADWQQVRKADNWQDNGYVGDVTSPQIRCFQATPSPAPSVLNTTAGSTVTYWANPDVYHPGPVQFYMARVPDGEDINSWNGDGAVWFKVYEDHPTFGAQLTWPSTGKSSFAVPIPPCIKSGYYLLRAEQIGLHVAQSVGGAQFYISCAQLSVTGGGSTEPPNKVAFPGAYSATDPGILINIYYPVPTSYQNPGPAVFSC
# MtL = target: T5, MtL (Thermothelomyces thermophilus, UniProt G2QFD0); conditions: 1 µM enzyme, with or without DHA, 40 °C, 30 min
# T5 construct: gene LMCO1; gift from Novozymes, purified to homogeneity
# T5 sequence (G2QFD0 21-650): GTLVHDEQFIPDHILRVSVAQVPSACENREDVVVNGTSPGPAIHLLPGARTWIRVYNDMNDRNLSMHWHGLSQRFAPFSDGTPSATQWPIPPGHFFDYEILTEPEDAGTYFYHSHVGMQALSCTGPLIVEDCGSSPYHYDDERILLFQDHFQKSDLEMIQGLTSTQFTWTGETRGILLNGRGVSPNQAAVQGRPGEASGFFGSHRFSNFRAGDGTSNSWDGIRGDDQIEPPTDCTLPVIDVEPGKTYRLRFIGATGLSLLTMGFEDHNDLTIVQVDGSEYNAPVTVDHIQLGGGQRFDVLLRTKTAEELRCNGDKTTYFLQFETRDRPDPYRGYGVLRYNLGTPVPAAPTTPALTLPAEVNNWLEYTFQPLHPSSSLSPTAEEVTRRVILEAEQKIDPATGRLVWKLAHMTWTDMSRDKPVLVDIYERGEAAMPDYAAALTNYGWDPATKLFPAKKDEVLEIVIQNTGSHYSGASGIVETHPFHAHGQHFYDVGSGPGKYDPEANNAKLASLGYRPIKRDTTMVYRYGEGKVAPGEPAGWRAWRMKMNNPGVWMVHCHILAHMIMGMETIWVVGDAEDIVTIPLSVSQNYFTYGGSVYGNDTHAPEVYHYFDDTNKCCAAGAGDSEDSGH
# TfAA10A = target: T6, TfAA10A (Thermobifida fusca, UniProt Q47QG3); conditions: 1 µM Cu-loaded enzyme, with or without DHA, 40 °C, 30 min
# T6 construct: gene Tfu_1268; expressed using LyGo platform, purified to homogeneity, loaded with CuCl2
# T6 sequence (Q47QG3 37-222): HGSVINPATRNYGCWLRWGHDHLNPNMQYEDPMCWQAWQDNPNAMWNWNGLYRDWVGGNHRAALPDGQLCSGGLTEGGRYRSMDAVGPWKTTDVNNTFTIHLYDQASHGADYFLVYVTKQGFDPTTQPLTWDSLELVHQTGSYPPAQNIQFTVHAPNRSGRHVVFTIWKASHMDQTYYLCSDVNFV
# LsAA9A = target: T7, LsAA9A (Panus similis, UniProt A0A0S2GKZ1); conditions: 1 µM Cu-loaded enzyme, with or without DHA, 40 °C, 30 min
# T7 construct: gene LPMO9A; gift from Novozymes, purified to homogeneity, loaded with CuCl2
# T7 sequence (A0A0S2GKZ1 20-254): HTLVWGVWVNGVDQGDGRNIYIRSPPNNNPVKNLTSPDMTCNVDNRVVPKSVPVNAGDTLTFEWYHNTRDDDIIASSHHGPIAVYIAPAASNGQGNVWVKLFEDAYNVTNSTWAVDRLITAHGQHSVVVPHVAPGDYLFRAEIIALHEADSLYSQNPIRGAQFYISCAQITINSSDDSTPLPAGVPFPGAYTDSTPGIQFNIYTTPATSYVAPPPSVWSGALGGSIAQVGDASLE
structure (smiles),measurement,setting,value
"O=C(O)c1ccccc1C(c1ccc(O)cc1)c1ccc(O)cc1 [rPHP, reduced phenolphthalein]",absorbance of PHP at 552 nm,CotA,"did oxidise rPHP; however, the rPHP oxidising activity of these enzymes was not enhanced"
same,absorbance of PHP at 552 nm,AnAA13,AnAA13 stands out with a relatively large rPHP oxidation without DHA
same,absorbance of PHP at 552 nm,SmAA10,All LPMOs tested oxidise rPHP in a DHA dependent reaction
same,absorbance of PHP at 552 nm,TtAA9,All LPMOs tested oxidise rPHP in a DHA dependent reaction
same,absorbance of PHP at 552 nm,MtL,"did oxidise rPHP; however, the rPHP oxidising activity of these enzymes was not enhanced"
same,absorbance of PHP at 552 nm,TfAA10A,All LPMOs tested oxidise rPHP in a DHA dependent reaction
same,absorbance of PHP at 552 nm,LsAA9A,All LPMOs tested oxidise rPHP in a DHA dependent reaction
